Assay results from patent US6455593B1, “Method of dynamic retardation of cell cycle kinetics to potentiate cell damage” (priority 1995, dated 2002).
Where two headings read alike, the source gives them in different places.

Tests used:
[1] = test system: Daudi cells; assay: MIS MTT growth inhibition assay; type: cell-based, human
Source text: (§1) A dye, 3-[4,5-dimethylthiazol-2-yl]-2,5-diphenyl-tetrazolium bromide (MTT), was used as a chromogenic indicator of the metabolically active cell mass. Viable cells metabolize the dye and accumulate a reduced formazan product (blue color) which is solubilized for colorimetry. Mossman T, J. Immunol. Methods 5:55-63 (1983); Li L and Lau B H S, In Vitro Cell Dev. Biol. 29A:531-536 (1993). The MTT assay has been established as useful for measuring either growth inhibition or population killing. Plowman, supra. The MTT method is ideal for cells tested in suspension growth, and can also be used for some cells growing in monolayers. […] Alley, supra; Hofs, supra; Wilson J K et al., Br. J. Cancer 62:189-94 (1990); Plowman, supra.
(§2) Thirty μl of 0.5% MTT in phosphate buffered saline was added to each microculture well at the appropriate time. After incubation at 37° C. for 3 hr, 120 μl of an aqueous solution of 10 % SDS with 0.01 N HCl was added to release and dissolve formazan product. This was accomplished by overnight incubation of the plate at 37° C. After careful mixing of the microwell contents by placing the plates on an orbital shaker for 5 minutes the absorbencies were quantitated by spectrophotometry at 570 nm with a Ceres UV 900 HDI microwell plate reader (from Biotek Instruments Inc, Winooski, Vt. 05404-0998). Absorbance data was normalized to a blank well containing all reagents without cells and was collected semi-automatically.
(§3) Flat-bottom 96-well plates of tissue culture quality (Corning or Costar) were set up with two-fold serial dilutions of each agent to be tested, e.g., the RA and TCI, using a multichannel pipettor with adjustable volume, e.g., Costar or Rainin, to perform serial mixing. This set-up is diagrammed in FIG. 12. […] In each plate, a total of 59 wells then contained bivariate agent combinations, the bivariate serial dilutions.

[2] = test system: U937 cells; assay: Bivariate flow cytometry, dUTP terminal transferase labelling of DNA strand breaks; type: cell-based, human
Experimental: In a more sophisticated use of flow cytometry, DNA strand breaks were detected in nuclei by means of terminal transferase and homopolymer tailing as described by Gorczyca W. et al., Cancer Res 53:1945-1951 (1993). Samples of 1×10^6 cells were fixed in 1% buffered formaldehyde at 0° C. for 5 minutes, washed with PBS, resuspended in 70% ethanol and stored at […] for 48 hours. Cells were rehydrated in PBS, then suspended in 100 μl of cacodylate buffer and 2.5 mM CoCI2 to prepare them for the terminal transferase reaction. Biotin-labelled 16-dUTP and terminal transferase (Boehringer Mannheim, GmbH) were added to provide the final concentration of […] and 500 units/ml, respectively, and reacted with the cells at 37° C. for 30 minutes. Cells were rinsed in PBS, resuspended in a 4×saline-citrate buffer with 0.1% triton X100, 5% (w/v) non-fat powdered milk and 2.5 μg/ml FITC-labelled avidin, Boehringer Mannheim, supra, and incubated at room temperature for 30 minutes. Excess avidin-FITC was removed by washing the cells with PBS containing 0.1% triton X-100. In the cells with DNA damage, biotin-labelled dUTP was localized by the avidin-FITC: avidin and biotin form a strong linkage and reveal the extent of dUTP homopolymer tailing.
The amount of DNA per cell reflects the cell cycle position of each cell.

[3] = test system: U937 cells; assay: Pilot test of enhancement of gamma radiation damage; type: cell-based, human; conditions: STSP as RA, approximately 25 nM, pilot data
Source text: Serial two-fold changes in calibrated radioactive dosages are combined with two-fold serial dilutions of an agent being tested as an RA or a TCI.

[4] = test system: U937 cells; assay: Delayed proliferation assay (MTT 48 hr after washing)
Experimental: Microcultures treated with an agent or agents for a defined period (exactly as in Example 8) were washed. Seventy-five percent of the well volume was removed without disturbing the sedimented cells, and medium was added to yield a ⅕ dilution. In three additional washes and cell sedimentations, 50% of the medium was replaced such that the original concentration of agents was reduced to <5%. The metabolic mass of cells surviving or proliferating at 48 hr after the washings, including the untreated control cells, was then assayed by the MTT method (total elapsed time of 70 hours).
As an adjunct to the delayed proliferative assay, we utilized an “immediate plate” to quantitate the cell mass at the beginning of the experiment (N0=original cell mass). It required no more than a single column of microwells filled with 50 μl of growth medium each, and aliquots of cells in 50 μl identical to those transferred to the usual “test plate”. The immediate plate was incubated at 37° C. to complete the MTT assay for the same time as used for the test plate (i.e. 3 hr).
Taking the mean final cell mass at 70 hours as N, each data point represents a ratio of the mean cell mass of dThd-treated cells as fraction of N/N0. A ratio of N/N0=1 indicates no change in original cell mass (i.e. no growth of the targeted population). A ratio of N/N0>1 indicates overall growth of the targeted population. A ratio of N/N0<1 indicates overall population loss (cell killing).
Taking the mean final cell mass at 70 hours as N, positive percentages represent the % effective cytotoxicity (EC%) expressed as 1−N/N0 and converted to a percentage, in relation to concentration. Thus, EC obtained only for ratios of N/N0<1 (i.e. positive percentages).

[5] = test system: pRb; assay: Immunoblot of pRb phosphorylation status; type: cell-based, human
Experimental: Whole cell extracts (U937 cells) were prepared in an SDS 2×sample buffer (100 mM Tris.HCl (pH 6.8), 200 mM DTT and 4% sodium dodecyl sulfate) and boiled for 5 minutes. Protein concentrations were assayed, and samples of 100 μg of protein per lane were applied to 7.5% SDS-polyacrylamide gels (PAGE). Resolved proteins were transferred to Immobilon P (Millipore), and pRb was localized with monoclonal anti-pRb (Santa Cruz, IF8) and a chemiluminescence procedure (Amersham ECL). Samples for flow cytometry were prepared and flow cytometry was performed as described in Example 2.

[6] = test system: HL-60 cells; assay: MIS MTT growth inhibition assay; type: cell-based, human
Source text: as §1, §2, §3

[7] = Homo sapiens, 4 h, read-out: MTT % inhibition, Aph only
[8] = Homo sapiens, HL-60, 2 h, dThd […] 2 H, STSP 0, read-out: MTT % inhibition, dThd only

## C[C@@]1(CO)[C@H](O)CC[C@@]2(C)[C@H]1CC[C@H]1C[C@@H]3C[C@@]12CC[C@]3(O)CO [Aph, aphidicolin]
[1]; Aph alone, every Aph concentration 8.00-0.02 ug/ml
  combined results ratio, Aph only (baseline line): 1.0
[1]; [7]
  inhibition at 0.02 µg/mL: 0%
  inhibition at 0.03 µg/mL: 1%
  inhibition at 0.06 µg/mL: 4%
  inhibition at 0.5 µg/mL: 8%
  inhibition at 1 µg/mL: 8%
  inhibition at 2 µg/mL: 9%
  inhibition at 4 µg/mL: 16%
  inhibition at 8 µg/mL: 28%

## CN[C@@H]1C[C@H]2O[C@@](C)([C@@H]1OC)n1c3ccccc3c3c4c(c5c6ccccc6n2c5c31)C(=O)NC4 [STSP, staurosporine]
[2]; 4 hours of 0.2 mM dThd followed by 25 nM STSP for additional 7 hours
  dUTP labelling (DNA fragmentation): marked increase in the number of dUTP labelled cells
[3]
  Effect on gamma radiation damage: an enhancing effect upon damage produced by a single exposure of the U937 cells to 2.5 to 10 Gy of gamma radiation
[4]; 13 nM STSP in the presence of 0.5 mM dThd, 70 hours
  Effective cytotoxicity (1-N/N0): about 85%
[4]; 25 nM STSP in the presence of 0.1 mM dThd, 70 hours
  Effective cytotoxicity (1-N/N0): about 85%

## Cc1cn([C@H]2C[C@H](O)[C@@H](CO)O2)c(=O)[nH]c1=O [dThd, deoxythymidine]
[2]; 3 mM dThd, 11 hours
  dUTP labelling (DNA fragmentation): appearance of cells with dUTP labelling, indicating DNA fragmentation
[5]; 0.2 mM dThd
  pRb phosphorylation: did not appear to be grossly inhibited
[5]; 3 mM dThd, 4 or 11 hours
  pRb phosphorylation: pRb phosphorylation was inhibited
[4]; 0.1 mM dThd alone, FIG. 20
  Effect on cell growth: minimal effect on cell growth as compared to controls
[4]; dThd alone, 70 hours
  Concentration for effective cytotoxicity of 40% (EC40): More than 3 mM
[6]; Homo sapiens, HL-60, 2 h, dThd 0.01 mM 2 H, STSP 0, read-out: MTT % inhibition, dThd only
  inhibition at 10 µM: 2%
[6]; Homo sapiens, HL-60, 2 h, dThd 0.01 mM (column 8, lowest) 2 H, STSP 0, read-out: MTT % inhibition, dThd only
  inhibition at 10 µM: 5%
[6]; Homo sapiens, HL-60, 2 h, dThd 0.02 mM 2 H, STSP 0, read-out: MTT % inhibition, dThd only
  inhibition at 20 µM: 7%
[6]; Homo sapiens, HL-60, 2 h, dThd 0.05 mM 2 H, STSP 0, read-out: MTT % inhibition, dThd only
  inhibition at 50 µM: 10%
[6]; Homo sapiens, HL-60, 2 h, dThd 0.09 mM 2 H, STSP 0, read-out: MTT % inhibition, dThd only
  inhibition at 90 µM: 13%
[6]; Homo sapiens, HL-60, 2 h, dThd 3.00 mM 2 H, STSP 0, read-out: MTT % inhibition, dThd only
  inhibition at 3000 µM: 59%
[6]; [8]
  inhibition at 190 µM: 20%
  inhibition at 380 µM: 28%
  inhibition at 750 µM: 40%
  inhibition at 1500 µM: 49%
[6]; dThd alone, dThd 3.00-0.09 mM
  combined results ratio, dThd only (baseline line): 1.0
